Earlier results as cited in patent publication US11833140B2, “Compositions and methods for treating, ameliorating and preventing H. pylori infections” (priority 2017, dated 2023).

Experiments:
H. pylori (HP) = settings: first line therapy, with amoxicillin and clarithromycin
[1] = compared with conventional PPI's
H^+/K^+—ATPAs = target: T1, H^+/K^+—ATPAs (Homo sapiens, UniProt P20648); settings: within 4 hours of its first administration in humans
T1 construct: increase intragastric pH to at least over pH 4.0 within 4 hours of its first administration in humans; host or cells: human stomach in vivo
T1 sequence (P20648 whole entry): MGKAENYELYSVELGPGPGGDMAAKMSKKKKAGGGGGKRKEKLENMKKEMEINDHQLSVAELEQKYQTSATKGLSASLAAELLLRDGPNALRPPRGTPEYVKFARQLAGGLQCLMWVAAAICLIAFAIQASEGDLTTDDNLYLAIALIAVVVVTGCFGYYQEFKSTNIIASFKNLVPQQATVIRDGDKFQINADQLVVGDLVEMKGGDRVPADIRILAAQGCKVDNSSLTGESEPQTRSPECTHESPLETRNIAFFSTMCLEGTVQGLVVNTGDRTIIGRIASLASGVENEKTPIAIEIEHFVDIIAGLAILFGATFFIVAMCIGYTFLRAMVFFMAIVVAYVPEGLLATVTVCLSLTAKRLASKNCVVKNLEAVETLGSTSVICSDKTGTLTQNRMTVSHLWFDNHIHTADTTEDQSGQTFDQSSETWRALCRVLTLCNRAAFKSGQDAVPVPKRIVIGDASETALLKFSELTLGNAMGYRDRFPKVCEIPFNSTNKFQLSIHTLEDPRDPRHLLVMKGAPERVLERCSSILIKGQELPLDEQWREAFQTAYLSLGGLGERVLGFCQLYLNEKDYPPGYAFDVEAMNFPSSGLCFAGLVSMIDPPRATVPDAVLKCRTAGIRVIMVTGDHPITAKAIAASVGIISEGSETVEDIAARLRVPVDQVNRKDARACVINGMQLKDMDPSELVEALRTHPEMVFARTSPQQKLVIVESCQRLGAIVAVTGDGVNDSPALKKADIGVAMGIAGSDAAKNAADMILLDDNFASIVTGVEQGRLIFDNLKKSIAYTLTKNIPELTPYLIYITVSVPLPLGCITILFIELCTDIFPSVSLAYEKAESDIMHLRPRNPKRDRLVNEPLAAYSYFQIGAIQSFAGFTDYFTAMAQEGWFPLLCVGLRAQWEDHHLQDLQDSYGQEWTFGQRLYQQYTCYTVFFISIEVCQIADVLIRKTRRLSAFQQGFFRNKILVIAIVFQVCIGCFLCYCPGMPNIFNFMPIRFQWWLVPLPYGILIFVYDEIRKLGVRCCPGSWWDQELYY
T1 sequence (P51164 whole entry partner): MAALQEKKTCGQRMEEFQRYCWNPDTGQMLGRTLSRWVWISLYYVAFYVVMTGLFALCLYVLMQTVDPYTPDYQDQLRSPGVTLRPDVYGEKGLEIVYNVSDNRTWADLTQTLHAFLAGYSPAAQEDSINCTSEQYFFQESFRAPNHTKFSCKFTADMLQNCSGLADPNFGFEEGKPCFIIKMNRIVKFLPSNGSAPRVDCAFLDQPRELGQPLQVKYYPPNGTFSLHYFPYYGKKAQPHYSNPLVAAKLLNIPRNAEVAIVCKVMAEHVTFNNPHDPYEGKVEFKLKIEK

CYP3A4 = CYP3A4 (Homo sapiens, UniProt P08684)
Sequence of CYP3A4 (P08684 whole entry): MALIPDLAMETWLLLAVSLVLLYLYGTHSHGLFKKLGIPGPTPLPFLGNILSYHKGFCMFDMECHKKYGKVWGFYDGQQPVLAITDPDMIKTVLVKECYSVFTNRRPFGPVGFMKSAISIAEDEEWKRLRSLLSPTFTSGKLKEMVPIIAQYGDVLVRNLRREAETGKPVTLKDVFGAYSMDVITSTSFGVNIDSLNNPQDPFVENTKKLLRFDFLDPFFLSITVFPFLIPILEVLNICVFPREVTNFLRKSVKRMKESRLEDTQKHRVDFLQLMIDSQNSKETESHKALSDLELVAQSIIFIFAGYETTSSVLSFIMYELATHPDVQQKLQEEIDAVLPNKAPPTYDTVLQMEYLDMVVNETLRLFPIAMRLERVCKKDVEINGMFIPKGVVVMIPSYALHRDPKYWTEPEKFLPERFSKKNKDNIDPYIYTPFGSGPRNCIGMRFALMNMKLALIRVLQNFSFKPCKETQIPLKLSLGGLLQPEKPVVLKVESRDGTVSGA

[2] = after a single 20 mg ingestion

## Cc1c(OCC(F)(F)F)ccnc1C[S+]([O-])c1nc2ccccc2[nH]1 (stereo not drawn) [lansoprazole]
H. pylori (HP)
  H. pylori (HP) eradication rate: 76%

## CNCc1cc(-c2ccccc2F)n(S(=O)(=O)c2cccnc2)c1.O=C(O)/C=C/C(=O)O [vonoprazan, 1-(5-(2-fluorophenyl)-1-(pyridin-3-ylsulfonyl)-1H-pyrrol-3-yl)-N-methylmethanamine fumarate]
[1]
  stability at neutral pH: more stable
H^+/K^+—ATPAs
  intragastric pH: > 4.0 pH
CYP2C19
  metabolised through the hepatic CYP2C19 haplotypes: not metabolised
CYP3A4
  metabolised by: by the CYP3A4 system
[2]
  plasma half-life: 7 h
